Experimental data reported in patent US20130029928A1 (priority 2010, published 2013).
Structures can show the parent of a compound that is named as a salt. Where two headings read alike, the source gives them in different places.

Legend:
MDA-MB-157 [1] = test: ATP depletion cytotoxicity assay 48 hr; type: cell-based, human; conditions: MDA-MB-157; CXR1002 300 μM; 48 hours
Description: (§2) Assay replicates were independent in time and up to 4 replicates were performed per cell line.
(§3) Cells were plated at the optimal plating density for that cell line in 96-well plates and allowed to attach overnight. The next day, the medium was removed and replaced with fresh medium containing the dose ranges of test items. […] There were 3 replicates for each test item concentration.
(§4) Following exposure to Test Items, the CellTitre-Glo Luminescent Cell Viability Assay to measure ATP content was performed according to the manufacturer's detailed instructions (Promega Corporation, Technical Bulletin No. 288, and Cell notes, Issue 10, 2004).
(§5) Cells were plated at the optimal plating density for that cell line in 96-well plates and allowed to attach overnight. The next day, cells were pre-treated with the inhibitors UO126 or LY294002 (see Tables 18 & 20) for 2 hrs, the medium was removed and replaced with fresh medium containing the appropriate dose of the test item. […] Cells were exposed to these compounds in Roswell Park Memorial Institute (RPMI) medium containing 10% Foetal Calf Serum (FCS) and 2 mM Glutamine at 37° C. and 5% CO2 for 48 hours. There were 3 replicates for each test item concentration.
(§6) Following exposure to Test Items, the CellTitre-Glo Luminescent Cell Viability Assay to measure ATP content will be performed according to the manufacturer's detailed instructions (Promega Corporation, Technical Bulletin No. 288, and Cell notes, Issue 10, 2004).

CaCo-2 = test: SRB cytotoxicity assay 48 hr; type: cell-based, human; conditions: read-out: IC50 Values After 48 Hrs Exposure
Description: (§7) The SRB assay was performed according to the method specified by the NIC/NIH. […] Assay replicates were independent in time and up to 4 replicates were performed per cell line.

HepG2 = test: SRB cytotoxicity assay 48 hr; type: cell-based, human; conditions: read-out: IC50 Values After 48 Hrs Exposure
Description: as §7

normal pancreas tissue = test: Microarray ER stress response in normal pancreas (28 day study in rat); type: in vivo
Description: Chemical toxicants such as tunicamycin and thapsigargin cause an accumulation of unfolded protein aggregates in the ER lumen (Schroder (2008)), (Harding (2002)), (Zhang (2008)). Whilst it is fair to say that many chemicals, drugs and toxicants induce ER stress, not all do. […] The phthalate DEHP and the PPARα agonist WY14,643 were also studied.

Male Sprague Dawley rats [2] = test: Dietary APFO (300 ppm) study in rats: plasma glucose, triglycerides, cholesterol, AST, ALT, APFO level; type: in vivo, rat; parameters: Triglycerides / Cholesterol / Glucose: unit not given here; conditions: 300 ppm in diet
Description: (§1) Rats were sacrificed at 7, 14, 28 and 84 days. Blood from each study animal was taken by cardiac puncture into lithium/heparin-coated tubes for separation of plasma. Plasma was analysed for glucose, triglycerides, cholesterol, AST and ALT (unpublished data).

[3] = as above; type: in vivo, rat; parameters: Triglycerides / Cholesterol / Glucose: unit not given here; conditions: male, Sprague Dawley, rat, oral, 300 ppm in diet
Description: as §1

A375 = test: SRB cytotoxicity assay 48 hr; type: cell-based, human; conditions: Homo sapiens, A-375, 48 h, read-out: IC50 Values After 48 Hrs Exposure
Description: as §7

HT-29 = test: SRB cytotoxicity assay 48 hr; type: cell-based, human; conditions: Homo sapiens, HT-29, 48 h, read-out: IC50 Values After 48 Hrs Exposure
Description: as §7

[4] = system: panel of human tumour-derived cell lines; test: Hoechst 3342 staining (apoptotic cells) in the SRB cell line panel; type: cell-based
[5] = system: hepatic peroxisome proliferation (PPARα); test: Hepatic peroxisome proliferation (cyanide-insensitive palmitoyl CoA oxidation) in rats; type: in vivo, rat; conditions: administration to rats
Description: The earliest recognised characteristic of PPARα agonists was their ability to induce peroxisome proliferation in hepatocytes. The PPARα response is reflected in the increased transcription of mitochondrial and peroxisomal lipid metabolism, sterol, and bile acid biosynthesis and retinol metabolism genes (Andersen (2008)).
Peroxisome proliferation occurs as a result of the interaction of a chemical with PPARα. This leads to an increase in the synthesis of peroxisomal and lipid-metabolising enzymes and, consequently, an increase in size and number of peroxisomes. Cyanide-insensitive palmitoyl CoA oxidation is an accepted marker of peroxisome proliferation, and was used to highlight PPARα activation in vitro and in vivo.

[6] = system: panel of human tumour-derived cell lines; test: BrdU incorporation (cell proliferation) in the SRB cell line panel; type: cell-based; conditions: 48 hrs
Hep3B = test: SRB cytotoxicity assay 48 hr; type: cell-based, human; conditions: Homo sapiens, 48 h, read-out: IC50 Values After 48 Hrs Exposure
Description: as §7

MDA-MB-157 [7] = test: SRB cytotoxicity assay 48 hr; type: cell-based, human; conditions: Homo sapiens, MDA-MB-157, 48 h, read-out: IC50 Values After 48 Hrs Exposure
Description: as §7

A549 = test: SRB cytotoxicity assay 48 hr; type: cell-based, human; conditions: Homo sapiens, A549, 48 h, read-out: IC50 Values After 48 Hrs Exposure
Description: as §7

A2780 = test: SRB cytotoxicity assay 48 hr; type: cell-based, human; conditions: Homo sapiens, A2780, 48 h, read-out: IC50 Values After 48 Hrs Exposure
Description: as §7

[8] = without reported adverse effects; cited from earlier work
MCF-7 = test: SRB cytotoxicity assay 48 hr; type: cell-based, human; conditions: Homo sapiens, MCF7, 48 h, read-out: IC50 Values After 48 Hrs Exposure
Description: as §7

CYP2C9 = CYP2C9 (Homo sapiens, UniProt P11712); test: Cytochrome P450 isozyme inhibition; type: in vitro ADME; conditions: under the conditions used (unpublished data); read-out: IC50 towards CYP2C9
Sequence of CYP2C9 (P11712 whole entry): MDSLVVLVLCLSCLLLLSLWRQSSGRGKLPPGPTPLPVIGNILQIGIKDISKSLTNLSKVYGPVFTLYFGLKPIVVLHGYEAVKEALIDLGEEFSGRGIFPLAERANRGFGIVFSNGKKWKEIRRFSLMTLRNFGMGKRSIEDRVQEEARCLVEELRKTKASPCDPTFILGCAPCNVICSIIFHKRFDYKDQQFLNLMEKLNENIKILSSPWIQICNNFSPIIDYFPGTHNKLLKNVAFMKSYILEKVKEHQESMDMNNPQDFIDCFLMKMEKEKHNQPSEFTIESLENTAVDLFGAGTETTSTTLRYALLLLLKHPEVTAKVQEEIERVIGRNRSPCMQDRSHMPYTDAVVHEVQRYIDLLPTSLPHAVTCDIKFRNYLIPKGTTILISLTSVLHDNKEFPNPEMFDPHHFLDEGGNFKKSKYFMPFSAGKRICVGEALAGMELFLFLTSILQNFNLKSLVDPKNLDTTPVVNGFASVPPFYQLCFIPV
Description: There is no evidence that APFO is metabolised in mammals once dissociated to form perfluorooctanoate.

PC3 = test: SRB cytotoxicity assay 48 hr; type: cell-based, human; conditions: Homo sapiens, PC-3, 48 h, read-out: IC50 Values After 48 Hrs Exposure
Description: as §7

Male Sprague Dawley rats [9] = test: Dietary APFO (300 ppm) study in rats: plasma glucose, triglycerides, cholesterol, AST, ALT, APFO level; type: in vivo, rat; parameters: Glucose / Triglycerides / ALT / AST: unit not given here; conditions: for ALT / AST / Glucose / Triglycerides: plasma, 300 ppm in diet
SW1353 = test: ATP depletion cytotoxicity assay 48 hr; type: cell-based, human; conditions: DPQ 20 μM + CXR1002 0-1 mM; SW1353
Description: as §4
(§8) Cells were plated at the optimal plating density for that cell line in 96-well plates and allowed to attach overnight. […] Cells were exposed to these compounds in Roswell Park Memorial Institute (RPMI) medium containing 10% Foetal Calf Serum (FCS) and 2 mM Glutamine at 37° C. and 5% CO2 for 48 hours. There were 3 replicates for each test item concentration.
as §6

HPAFII = test: ATP depletion cytotoxicity assay 48 hr; type: cell-based, human; conditions: DPQ 20 μM + CXR1002 0-1 mM; HPAFII
Description: as §4, §8, §6

Capan2 = test: ATP depletion cytotoxicity assay 48 hr; type: cell-based, human; conditions: DPQ 20 μM + CXR1002 0-1 mM; Capan2
Description: as §2, §3, §4, §5, §6

[10] = system: panel of tumour cell lines; test: ATP cytotoxicity assay on the panel of tumour cell lines (CXR1002 alone; test items alone vs combined with CXR1002); conditions: a number of the cell lines; single dose of CXR1002; 48 hours
Description: as §7
Cells were plated at the optimal plating density for that cell line in 96-well plates and allowed to attach overnight. The next day, the medium was removed and replaced with fresh medium containing the dose ranges of test items. The cells were exposed to 5-FU, cisplatin, docetaxel, doxorubicin, geldanamycin, gemcitabine, rapamycin or roscovitine in Roswell Park Memorial Institute (RPMI) medium containing 10% Foetal Calf Serum (FCS) and 2 mM Glutamine at 37° C. and 5% CO2 for 48 hours. […] There were 3 replicates for each test item concentration.
as §4

H (chondrosarcoma) = test: ATP depletion cytotoxicity assay 48 hr; conditions: LY294002 12.5 μM + CXR1002 0-1 mM; sarcoma cell line H most notably
Description: as §2, §3
Cells were plated at the optimal plating density for that cell line in 96-well plates and allowed to attach overnight. The next day, cells were pre-treated with the inhibitors UO126 or LY294002 (see Tables 18 & 20) for 2 hrs, the medium was removed and replaced with fresh medium containing the appropriate dose of the test item. […] Cells that were to be treated with DPQ received no pre-treatment. […] There were 3 replicates for each test item concentration.

rats [11] = conditions: doses below those causing maternal toxicity; cited from earlier work
[12] = target: liver X receptor β (LXRβ) (Homo sapiens, UniProt P55055); conditions: ref (14); cited from earlier work
Sequence of liver X receptor β (LXRβ) (P55055 whole entry, species assumed): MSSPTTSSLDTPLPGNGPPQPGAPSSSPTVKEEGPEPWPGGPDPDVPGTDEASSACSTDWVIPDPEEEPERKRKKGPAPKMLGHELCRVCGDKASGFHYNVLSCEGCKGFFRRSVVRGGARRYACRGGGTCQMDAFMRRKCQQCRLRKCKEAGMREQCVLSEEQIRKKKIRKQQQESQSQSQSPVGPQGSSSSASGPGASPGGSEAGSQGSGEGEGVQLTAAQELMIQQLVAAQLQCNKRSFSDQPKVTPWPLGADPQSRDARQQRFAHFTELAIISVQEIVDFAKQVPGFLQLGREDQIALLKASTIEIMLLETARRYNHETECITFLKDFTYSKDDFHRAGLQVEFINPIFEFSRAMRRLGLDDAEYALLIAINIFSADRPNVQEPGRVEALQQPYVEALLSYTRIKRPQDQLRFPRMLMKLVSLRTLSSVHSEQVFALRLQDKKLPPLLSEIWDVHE

[13] = following oral exposure; literature; cited from earlier work
[14] = target: retinoid X receptor α (RXRα) (Homo sapiens, UniProt P19793); conditions: ref (14); cited from earlier work
Sequence of retinoid X receptor α (RXRα) (P19793 whole entry, species assumed): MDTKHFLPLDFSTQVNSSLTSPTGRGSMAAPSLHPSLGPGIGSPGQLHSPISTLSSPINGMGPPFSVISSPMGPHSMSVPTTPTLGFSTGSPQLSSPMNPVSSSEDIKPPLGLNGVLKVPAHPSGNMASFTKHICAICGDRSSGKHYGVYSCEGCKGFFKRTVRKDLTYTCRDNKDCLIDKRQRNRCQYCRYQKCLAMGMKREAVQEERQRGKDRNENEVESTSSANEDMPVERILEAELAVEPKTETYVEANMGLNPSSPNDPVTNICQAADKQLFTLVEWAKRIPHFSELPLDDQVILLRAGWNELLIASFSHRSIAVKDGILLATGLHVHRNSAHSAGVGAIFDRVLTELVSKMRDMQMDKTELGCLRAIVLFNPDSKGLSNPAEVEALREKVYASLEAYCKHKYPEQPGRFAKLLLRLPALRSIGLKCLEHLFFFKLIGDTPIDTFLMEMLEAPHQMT

[15] = in vivo; cited from earlier work
rats [16] = conditions: cited from earlier work
[17] = cited from earlier work
primary rat hepatocytes = conditions: Bjork (2009); cited from earlier work
Breast cancer cell lines = conditions: read-out: IC50 (Concentration, literature); Mol. Cancer Ther. (2002); cited from earlier work

O=c1[nH]cc(F)c(=O)[nH]1 [5-FU, 5-Fluorouracil, reference compound]
sensitivity to combination with CXR1002 vs test item alone (MDA-MB-157 [1]): apparent increase in sensitivity

O=C(O)C(F)(F)C(F)(F)C(F)(F)C(F)(F)C(F)(F)C(F)(F)C(F)(F)F [APFO, Ammonium Perfluorooctanoate]
IC50 (CaCo-2; Homo sapiens, Caco-2, 48 h): ~740 µM | IC50 (CaCo-2): 737 ± 245 µM | IC50 (HepG2; Homo sapiens, HepG2, 48 h): ~160 µM | IC50 (HepG2): 167 ± 97.1 µM | ER stress response (normal pancreas tissue): not seen | Triglycerides (Male Sprague Dawley rats [2]; Week 1): 0.41 ± 0.12 | Cholesterol (Male Sprague Dawley rats [2]; Week 2): 1.55 ± 0.27 | Triglycerides (Male Sprague Dawley rats [2]; Week 2): 0.62 ± 0.13 | Cholesterol (Male Sprague Dawley rats [2]; Week 4): 1.70 ± 0.29 | Glucose (Male Sprague Dawley rats [2]; Week 4): 15.34 ± 2.64 | Cholesterol (Male Sprague Dawley rats [2]; Week 12): 1.75 ± 0.33 | Glucose (Male Sprague Dawley rats [2]; Week 12): 13.12 ± 1.23 | concentration at 2 weeks ([3]; week 2): 157 ± 77.8 µM | concentration at 4 weeks ([3]; week 4): 257 ± 38.9 µM | IC50 (A375): 230 ± 10 µM | IC50 (HT-29): 283 ± 5.8 µM | induction of apoptosis ([4]; 10 μM): little effect | induction of apoptosis ([4]; 30 μM): variable responses | induction of apoptosis ([4]; 300 μM): marked induction of apoptosis | hepatic peroxisome proliferation (induction of cyanide-insensitive palmitoyl CoA oxidation) [5]: led to hepatic peroxisome proliferation | BrdU incorporation ([6]; 10 μM): No marked effects | BrdU incorporation ([6]; 30 μM): variable | BrdU incorporation ([6]; 300 μM, all but one of the cell lines): Significant suppression of BrdU incorporation | IC50 (Hep3B): 273 ± 80.2 µM | IC50 (MDA-MB-157 [7]): 512 ± 194 µM | IC50 (A549): 223 ± 35.4 µM | IC50 (A2780): 260 ± 28.3 µM | serum concentration in workers involved in manufacture [8]: ≤ 275 µM | IC50 (MCF-7): 388 ± 227 µM | IC50 (CYP2C9): 0.78 µM | IC50 (PC3): 317 ± 59.2 µM | adverse clinical observations (Male Sprague Dawley rats [9]; after one year of continuous dietary dosing, 300 ppm): No adverse clinical observations | ALT (Male Sprague Dawley rats [9]; Days 1 (so in the source)): 101.90 ± 12.19 | ALT (Male Sprague Dawley rats [9]; Days 2 (so in the source)): 119.45 ± 19.27 | AST (Male Sprague Dawley rats [9]; Days 2 (so in the source)): 120.00 ± 16.47 | ALT (Male Sprague Dawley rats [9]; Days 4 (so in the source)): 98.99 ± 24.44 | AST (Male Sprague Dawley rats [9]; Days 4 (so in the source)): 101.80 ± 19.17 | ALT (Male Sprague Dawley rats [9]; Days 12 (so in the source)): 91.89 ± 14.88 | AST (Male Sprague Dawley rats [9]; Days 12 (so in the source)): 92.63 ± 12.19 | Glucose (Male Sprague Dawley rats [9]; Week 1): 14.31 ± 1.88 | Glucose (Male Sprague Dawley rats [9]; Week 2): 16.98 ± 3.21 | Triglycerides (Male Sprague Dawley rats [9]; Week 4): 0.57 ± 0.13 | Triglycerides (Male Sprague Dawley rats [9]; Week 12): 0.63 ± 0.15

CCCCC(CC)COC(=O)c1ccccc1C(=O)OCC(CC)CCCC (stereo not shown) [DEHP]
ER stress response (normal pancreas tissue): No evidence of ER stress response was detected

O=C1NCCc2c(OCCCCN3CCCCC3)cccc21 [DPQ, reference compound]
sensitivity in conjunction with CXR1002 vs CXR1002 alone (SW1353): increased sensitivity | sensitivity in conjunction with CXR1002 vs CXR1002 alone (HPAFII): increased sensitivity | sensitivity in conjunction with CXR1002 vs CXR1002 alone (Capan2): increased sensitivity

COc1cccc2c1C(=O)c1c(O)c3c(c(O)c1C2=O)C[C@@](O)(C(=O)CO)C[C@@H]3O[C@H]1C[C@H](N)[C@H](O)[C@H](C)O1 [Doxorubicin, Doxorubicin hydrochloride]
sensitivity to combination with CXR1002 vs test item alone [10]: increase the sensitivity

O=c1cc(N2CCOCC2)oc2c(-c3ccccc3)cccc12 [LY294002, reference compound]
cytotoxic efficacy in conjunction with CXR1002 vs CXR1002 alone (H (chondrosarcoma)): increased efficacy

O=C(O)C(F)(F)C(F)(F)C(F)(F)C(F)(F)C(F)(F)C(F)(F)C(F)(F)F [PFOA, perfluorooctanoic acid]
teratogenic or foetotoxic effects (rats [11]): no teratogenic or foetotoxic effects | activation of LXRβ [12]: Neither liver X receptor β (LXRβ) nor the common heterodimerization partner retinoid X receptor α (RXRα) are activated | metabolism [13]: not metabolised | activation of RXRα [14]: Neither liver X receptor β (LXRβ) nor the common heterodimerization partner retinoid X receptor α (RXRα) are activated | acute oral toxicity [15]: moderate acute oral toxicity | tumour incidence (liver, pancreas acinar cell, testes Leydig cell adenomas) (rats [16]; 30 ppm in the diet): not at 30 ppm | tumour incidence (liver, pancreas acinar cell, testes Leydig cell adenomas) (rats [16]; 300 ppm in the diet): increased incidence of benign tumours | clearance of blood levels ([17]; female rats, 24 hrs after dosing): > 95% | accumulation in blood ([17]; female rats, 25 mg/kg oral after 10 previous similar doses): does not appear to accumulate | extent of biliary excretion ([17]; female rats): < 1.0% | time to peak blood levels ([17]; single gavage 25 mg/kg, rats): 1 to 2 h | total radioactivity absorbed ([17]; single oral dose 14C-PFOA 11 mg/kg, male rats, at 24 hrs): at least 93% | concentration causing increased expression of DDIT3/CHOP/GADD153 (primary rat hepatocytes): ≥ 30 µM

N#CC(=C(/N)Sc1ccccc1N)/C(C#N)=C(\N)Sc1ccccc1N [U0126]
IC50 (Breast cancer cell lines): 10 to 20 µM

Cc1cccc(Nc2cc(Cl)nc(SCC(=O)O)n2)c1C [WY14,643]
ER stress response (normal pancreas tissue): No evidence of ER stress response was detected

Nc1ccn([C@@H]2O[C@H](CO)[C@@H](O)C2(F)F)c(=O)n1 [gemcitabine, Gemcitabine]
sensitivity to combination with CXR1002 vs test item alone [10]: increase the sensitivity

CC[C@H](CO)Nc1nc(NCc2ccccc2)c2ncn(C(C)C)c2n1 [roscovitine, Roscovitine]
sensitivity to combination with CXR1002 vs test item alone [10]: increase the sensitivity
